{"source": "patent US7875599B2", "about": "“C-17-heteroaryl steroidal CYP17 inhibitors/antiandrogens, in vitro biological activities, pharmacokinetics and antitumor activity” (University of Maryland, priority 2005, dated 2011)", "key": {"[1]": {"assay": "Pharmacokinetics after single s.c. dose in male SCID mice", "type": "in vivo, mouse", "conditions": "for peak plasma level: mice (as printed in summary b4); for half-life: male, SCID", "source_text": "Pharmacokinetics of 5 and 6 and metabolism of 5: The pharmacokinetic properties in male SCID mouse for the two lead compounds, 5 and 6 are studied following our recently described procedure for other CYP17 inhibitors (Nnane et al., “Pharmacokinetic profile of 3β-hydroxy-17-(1H-123-triazol-1-yl)androsta-5,16-diene (VN/87-1), a potent androgen synthesis inhibitor in mice”, J. Steroid Biochem. Molec. Biol., 2001, 71, 145-152; and Handratta et al., “Potent CYP17 inhibitors: improved syntheses, pharmacokinetics and anti-tumor activity in the LNCaP human prostate cancer model”, J. Steroid Biochem. Molec. Biol., 2004, 92, 155-165.\nPharmacokinetic Studies All animal studies are performed according to the guidelines and approval of the Animal Care Committee of the University of Maryland School of Medicine, Baltimore. Male SCID mice weighing 20-22 gm (8-10 weeks old) obtained from NCI, Frederick, Md., USA are maintained in a controlled environment of about 25° C., 50% relative humidity and 12 h of light and 12 h of dark cycles and allowed free access to food and water. Compounds 5 and 6 are formulated in 40% β-cyclodextrin in water and a single subcutaneous dose is given to mice. The animals are sacrificed at various times up to 6 h after drug administration and blood was obtained by cardiac puncture under light halothane (Ayerst, New York, N.Y., USA) anesthesia.\nHPLC Analysis: Chromatographic separations and quantification of the steroids and the appropriate internal standards are achieved by a reverse phase HPLC method on a Waters® Novapak® C18 column (3.9×150 mm) protected by Waters® guard cartridge packed with pellicle C18 as previously described. Briefly, the HPLC system used in this study consisted of Waters® solvent delivery system, Waters® controller (Milford, Mass.), coupled to a Waters® 717^plus autosampler and a Waters® 996 photodiode array detector operated at 242.7 nm. The mobile phase composition is Water/MeOH/CH3CN (35:35:30, v/v/v+200 μl, of Et3N and 0.77 g of NH4OAc per 1000 mL of mobile phase) at a flow rate of 1.0 mL/min. The HPLC analysis is performed at ambient temperature and data acquisition and management ius achieved with a Waters® millennium chromatography manager.\nSample Preparation: Test tubes containing mouse plasma (200 μL), 5 or 6 and VN/85-1 (internal standard, 10 μL of 100 μg/mL), are extracted with diethyl ether (2×2 mL) using a vortex mixer for 3 minutes and centrifuged at 3000 g for 5 min. The organic layers are evaporated to dryness under a gentle stream of air. The residue is reconstituted in an aliquot of the mobile phase (100 μL) and filtered using 0.2 μm Teflon filters before HPLC analysis. Calibration Curve and HPLC Assay Validation: The calibration curves for 5 in plasma and tissue and for 6 in plasma are constructed by spiking varying amounts of the compounds into extraction tubes (duplicate) containing plasma (200 μL) and tissue preparations (200 μL) from untreated animals to give final concentrations of 0.1-100.0 μg/mL. Appropriate blank extraction tubes are also prepared and an aliquot of the internal standard is added into each extraction tube to give a final concentration of 5 μg/ml. The calibration samples are taken through the sample preparation procedure as described above. An aliquot of the reconstituted extract (50 μl) is injected into the HPLC system and the ratio of the peak areas for each analyte to that of the internal standard are plotted against concentrations of 5 or 6. The precision and accuracy of the assays are determined from a range of known concentrations of the inhibitors in blank plasma and taken through the HPLC procedure. The study is repeated on three separate occasions.\nData Analysis: Pharmacokinetic calculations are performed as previously described. The non-compartmental pharmacokinetic calculations are performed using WinNOnlin (Scientific Consulting Inc.). […]"}, "[2]": {"tested_on": "LAPC4 human prostate tumor xenograft", "assay": "LAPC4 xenograft, first experiment (established tumors, 4 weeks of treatment)", "type": "in vivo, mouse", "conditions": "28 days", "protocol": "In the first experiment, the effect of compounds 5 and 6 on the growth of well-established LAPC4 prostate cancer tumors in SCID mice is determined, and castration is used as the reference treatment. Tumor-bearing mice are assigned (n=5/group) to receive one of two doses of 5 or 6 (0.15 mmol/kg once-daily or 0.15 mmol/kg twice-daily). Tumor volumes are measured weekly and compared with controls receiving vehicle or castrated mice.\nIn Vivo Antitumor Studies (LAPC-4 Prostate Cancer Xenografts): All animal studies are performed according to the guidelines and approval of the Animal Care Committee of the University of Maryland School of Medicine, Baltimore. Male severe combined immunodeficient (SCID) mice 4-6 weeks of age purchased from the National Cancer Institute-Frederick Cancer Research and Development Center (Fredrick, Md.) are housed in a pathogen-free environment under controlled conditions of light and humidity and allowed free access to food and water. Tumors are developed from LAPC4 cells inoculated subcutaneously (s.c.) in the mice essentially as previously described (21). LAPC4 cells are grown in IMEM with 15% FBS plus 1% PS and 10 nm DHT until 80% confluent. Cells are scraped into DPBS, collected by centrifugation, and resuspended in Matrigel (10 mg/ml) at 3×10^7 cells/ml. Mice are injected s.c. with 100 μl of the cell suspension at one site on each flank. Tumors are measured weekly with calipers, and tumor volumes are calculated by the formula: […]).\nIn the first experiment, LAPC4 tumors are allowed to grow for 8-10 weeks following inoculation. […] Mice are castrated under methoxyfluorane anesthesia. Compounds 5 and 6 were prepared at 17.2 mg/ml in a 0.3% solution of hydroxypropyl cellulose in saline, and mice receiv s.c. injections daily. Control and castrated mice are treated with vehicle only. Tumors are measured weekly for the 4 weeks of treatment and tumor volumes are calculated. At the end of the treatment period, the animals are sacrificed under halothane anesthesia; tumors are excised, weighed and stored at −80° C. Animals are also weighed weekly and monitored for general health status and signs of possible toxicity due to treatment.\nFIG. 6: In vivo antitumor activity of 5, 6 and orchidectomy on the growth of LAPC4 prostate tumors in male SCID mice. Groups of five mice with LAPC-4 tumors were treated with 5 (0.15 mmol/kg/day or 0.30 mmol/kg/day. Tumors volumes were measured weekly, and the percentage of change in tumor volume was determined after 28 days of treatment. The standard deviations of tumor volumes (not shown) were ±10-12% of the mean values."}, "[3]": {"conditions": "mouse, plasma, sc, 50 mg/kg, 50 mg/kg s.c., male SCID mice"}}, "note": "Entries after “also recorded” stand apart in the source; their conditions may differ. Where two headings read alike, the source gives them in different places.", "data": [{"compound": "C[C@]12CCC(=O)C=C1CC[C@@H]1[C@@H]2CC[C@]2(C)C(n3cnc4ccccc43)=CC[C@@H]12", "note": "[Compound 6, 17-(1H-benzimidazol-1-yl)androsta-4,16-diene-3-one]", "values": [{"measurement": "Kel", "setting": "[1]; 50 mg/kg s.c., male SCID mice", "result": "0.0183 ± 0.004", "unit": "min⁻¹"}, {"measurement": "Vd", "setting": "[1]; 50 mg/kg s.c., male SCID mice", "result": "4207.24 ± 6.25", "unit": "mL/kg"}, {"measurement": "t1/2", "setting": "[1]; 50 mg/kg s.c., male SCID mice, plasma", "result": "37.93 ± 1.15", "unit": "min"}, {"measurement": "peak plasma level", "setting": "[1]; 50 mg/kg s.c.", "result": 5.15, "unit": "ng/mL"}, {"measurement": "metabolism of the compound detected in plasma", "setting": "[1]; in vivo pharmacokinetics in mice", "result": "did not detect any metabolism(s)"}, {"measurement": "half-life", "setting": "[1]; [3]", "result": 39.9, "unit": "min"}, {"measurement": "AUC", "setting": "[1]; mouse, plasma, sc, 50 mg/kg s.c., male SCID mice, read-out: AUC (converted)", "result": 10800, "unit": "ng·h/mL"}, {"measurement": "Cmax", "setting": "[1]; mouse, plasma, sc, 50 mg/kg s.c., male SCID mice, read-out: Cmax", "result": "5150 ± 90", "unit": "ng/mL"}, {"measurement": "MRT", "setting": "[1]; mouse, plasma, sc, 50 mg/kg s.c., male SCID mice, read-out: MRT (converted)", "result": 80, "unit": "min"}, {"measurement": "Tmax", "setting": "[1]; mouse, plasma, sc, 50 mg/kg s.c., male SCID mice, read-out: Tmax (converted)", "result": 60, "unit": "min"}, {"measurement": "time after administration at which compound was not detected in plasma", "setting": "[1]; s.c. administration, mice", "result": 8, "unit": "h"}, {"measurement": "reduction of average final tumor volume compared to vehicle-treated control", "setting": "[2]; 0.15 mmol/kg once daily s.c.", "result": "ineffective"}, {"measurement": "reduction of average final tumor volume compared to vehicle-treated control", "setting": "[2]; 0.15 mmol/kg twice daily s.c.", "result": "stimulation of tumor growth; also recorded: enhances tumor growth"}]}, {"compound": "C[C@]12CC[C@H](O)CC1=CC[C@@H]1[C@@H]2CC[C@]2(C)C(n3cnc4ccccc43)=CC[C@@H]12", "note": "[Compound 5, 3β-Hydroxy-17-(1H-benzimidazol-1-yl)androsta-5,16-diene]", "values": [{"measurement": "AUC", "setting": "[1]; 50 mg/kg s.c., male SCID mice", "result": "24000 ± 1004", "unit": "ng·h/mL"}, {"measurement": "Cmax", "setting": "[1]; 50 mg/kg s.c., male SCID mice", "result": "16820 ± 370", "unit": "ng/mL"}, {"measurement": "MRT", "setting": "[1]; 50 mg/kg s.c., male SCID mice", "result": "65.40 ± 0.60", "unit": "min"}, {"measurement": "Tmax", "setting": "[1]; 50 mg/kg s.c., male SCID mice", "result": 30.0, "unit": "min"}, {"measurement": "Vd", "setting": "[1]; 50 mg/kg s.c., male SCID mice", "result": "2098.99 ± 4.", "unit": "mL/kg"}, {"measurement": "peak plasma level", "setting": "[1]; 50 mg/kg s.c.", "result": 16.82, "unit": "ng/mL"}, {"measurement": "AUC", "setting": "[1]; 100 mg/kg s.c., male SCID mice", "result": "30232.3 ± 182.3", "unit": "ng·h/mL"}, {"measurement": "Cmax", "setting": "[1]; 100 mg/kg s.c., male SCID mice", "result": "32230 ± 340", "unit": "ng/mL"}, {"measurement": "MRT", "setting": "[1]; 100 mg/kg s.c., male SCID mice", "result": "60.46 ± 1.54", "unit": "min"}, {"measurement": "Tmax", "setting": "[1]; 100 mg/kg s.c., male SCID mice", "result": "30.00 ± 0.0", "unit": "min"}, {"measurement": "Vd", "setting": "[1]; 100 mg/kg s.c., male SCID mice", "result": "113276.39 ± 26.71", "unit": "mL/kg"}, {"measurement": "half-life", "setting": "[1]; [3]", "result": 44.2, "unit": "min"}, {"measurement": "half-life", "setting": "[1]; mouse, plasma, sc, 100 mg/kg, 100 mg/kg s.c., male SCID mice", "result": "36.6 ± 1.6", "unit": "min"}, {"measurement": "clearance from the systemic circulation", "setting": "[1]; s.c. administration, male SCID mice", "result": 33.1023, "unit": "mL/min/kg"}, {"measurement": "reduction of average final tumor volume compared to vehicle-treated control", "setting": "[2]; 0.15 mmol/kg once daily s.c.", "result": 41, "unit": "%"}, {"measurement": "reduction of average final tumor volume compared to vehicle-treated control", "setting": "[2]; 0.15 mmol/kg twice daily s.c.", "result": 86.5, "unit": "%"}]}]}
